Experiments:
[1] = Moisture sorption/desorption (VTI SGA-100 moisture balance); format: physicochemical
Experimental: Moisture sorption/desorption data were collected on a VTI SGA-100 moisture balance system. For sorption isotherms, a sorption range of 5 to 95% relative humidity (RH) and a desorption range of 95 to 5% RH in 10% RH increments were used for analysis. The samples were not dried prior to analysis. Equilibrium criteria used for analysis were less than 0.0100% weight change in 5 minutes with a maximum equilibration time of 3 hours if the weight criterion was not met. Data were not corrected for the initial moisture content of the samples.

[2] = Solid-form stability on storage at ambient temperature and humidity, XRPD analysis; format: physicochemical; settings: for form conversion during storage: during storage (general description); for solid form by XRPD after storage: stored approximately two months, ambient temperature and humidity, hydrochloride
From the text: Tiagabine HCl Form K was stored for approximately two months under conditions of ambient temperature and humidity.

Structure (SMILES) | solid form by XRPD after moisture sorption/desorption ([1]; XRPD analysis of the sample after moisture sorption/desorption) | weight loss from 95% to 5% RH ([1]; desorption 95% to 5% RH) | weight loss upon equilibration at 5% relative humidity (RH) ([1]; equilibration at 5% RH, sample not dried prior to analysis) | weight gain from 5% to 95% RH ([1]; sorption 5% to 95% RH) | form conversion during storage ([2]; listed as Tiagabine hydrochloride Form K) | solid form by XRPD after storage [2] | form conversion during storage ([2]; listed as Tiagabine hydrochloride Form L)
Cc1ccsc1C(=CCCN1CCC[C@@H](C(=O)O)C1)c1sccc1C [Tiagabine free base Form A, (−)-(R)-1-(4,4-bis(3-methyl-2-thienyl)-3-butenyl)-3-piperidinecarboxylic acid] | tiagabine free base amorphous | 18.7% | 1.0% | 23.5% | – | – | –
Cc1ccsc1C(=CCCN1CCC[C@@H](C(=O)O)C1)c1sccc1C.Cl [Tiagabine HCl Form K, tiagabine hydrochloride] | – | – | – | – | converts to a mixture of tiagabine hydrochloride Forms Q and B | a mixture of tiagabine HCl Forms Q and B | –
Cc1ccsc1C(=CCCN1CCC[C@@H](C(=O)O)C1)c1sccc1C.Cl [Tiagabine HCl Form L, tiagabine hydrochloride] | – | – | – | – | – | a mixture of tiagabine HCl Forms B and Q | converts to a mixture of tiagabine hydrochloride Forms B and Q

— patent US20080051435A1, “Crystalline and amorphous forms of tiagabine” (Cephalon, Inc., priority 2006, published 2008)
